Laboratory results published in patent publication US20220142959A1, “LEUCINE, ACETYL LEUCINE, AND RELATED ANALOGS FOR TREATING DISEASE” (priority 2019, published 2022).

Experiments:
LC3-II and APP-CTFs = test: EAL flux in NPC1 mice (cerebellum LC3-II and APP-CTFs); assay type: in vivo, mouse; conditions: treated 3 weeks
From the text: FIG. 14 is a histogram of the ratio of LC3-II expression to βIII-tubulin in the cerebellum of mouse NPC1 brains at 9-12 weeks of age treated with ADLL, ALL, ADL, DLL, LL, DL, LLE, and miglustat (miglu.) for 3 weeks relative to untreated NPC1 cerebellum (n=4, mean±S.E.M).
FIG. 15 is a histogram of the ratio of APP-CTFs: full-length APP expression in the cerebellum of mouse NPC1 brains at 9-12 weeks of age treated with ADLL, ALL, ADL, DLL, LL, DL, LLE, and miglustat (miglu.) for 3 weeks relative to untreated NPC1 cerebellum (n=4, mean±S.E.M).
FIG. 16 is a histogram of the ratio of APP-CTF-6: full-length APP expression in the cerebellum of mouse NPC1 brains at 9-12 weeks of age treated with ADLL, ALL, ADL, DLL, LL, DL, and LLE for 3 weeks relative to untreated NPC1 cerebellum.
FIG. 17 is a histogram of the ratio of APP-CTF-7: full-length APP expression in the cerebellum of mouse NPC1 brains at 9-12 weeks of age treated with ADLL, ALL, ADL, DLL, LL, DL, and LLE for 3 weeks relative to untreated NPC1 cerebellum (n=4, mean±S.E.M).
The efficacy of ADLL, ALL, ADL, DLL, LL, DL, and LLE in alleviating the impairment of EAL flux in NPC1 mice was investigated. […] Without wishing to be bound by any particular theory, it is possible that ADL and LLE reduced autophagic vacuole (AV) build-up by inhibiting autophagosome formation, possibly through the activation mTORC1. […] Also, acetyl L-leucine (ALL), acetyl D-leucine (ADL) and L-leucine (LL) reduced CTF-7 expression, indicating some improvement in lysosomal proteolysis (FIG. 17).

[1] = system: rat primary cortical neurons; test: U18666A-mediated impairment of lysosomal fusion in rat primary cortical neurons; assay type: cell-based; conditions: co-treated with U18666A (2 μg/mL) and compound 1 mM, 24 h
Procedure: (§1) FIG. 18. is a histogram of the ratio of LC3-II normalised to βIII tubulin (expressed as a percentage of untreated (n=1)) in rat primary cortical neurons that were treated with U18666A (2 μg/ml, 24 hr) in the absence or presence of ADLL, ALL, ADL, DLL, LL, DL, and LLE (1 mM, 24 hr).
as §1, with “19” for “18.”, “is” for “is a”, “APP-CTFs-6 and -7” for “LC3-II”, “their respective CTFs in untreated cells” for “βIII tubulin”, “(n=1)” for “(n=1))”
The efficacy of ADLL, ALL, ADL, DLL, LL, DL, and LLE in alleviating the U18666A-mediated impairment of autophagosome-lysosome fusion and endosomal lysosomal fusion was investigated. In this cell-based assay of impaired EAL flux, the reappearance of basal levels of APP CTFs-6 and -7, provided an indication of improved endosomal-lysosomal fusion.
Neurons were co-treated with U18666A (2 μg/mL) along with ADLL, ALL, ADL, DLL, LL, DL, and LLE (1 mM, 24 h).

## CC(=O)N[C@@H](CC(C)C)C(=O)O [ALL, acetyl-L-leucine]
LC3-II and APP-CTFs
  CTF-7 expression / clearance: reduced
[1]
  CTF-6 and -7 (endosomal-lysosomal fusion): reappearance of basal amounts
  LC3-II levels: lower than the basal levels
